Test results reported in US10494611B2, “Compositions comprising a mitofusin inhibitor for promoting cell reprogramming and a use thereof” (KOREA RESEARCH INSTITUTE OF BIOSCIENCE AND BIOTECHNOLOGY, priority 2014, dated 2019).
“Also recorded” adds a separate entry of the source. Values belong to the molecule of their own block, whether it stands above or below them.

How the values were obtained:
human Mfn1 promoter = test: Human Mfn1 promoter reporter assay (luciferase) in 293T cells, REDOX library screening; format: cell-based; settings: 293T cells with human Mfn1 promoter reporter, 10 μM, 48 hours
Experimental: (§1) In one specific embodiment of the present invention, mouse and human Mfn1 promoter reporter (Genecopoeia) cells were prepared using Mfn1−/−MEFs and 293T cells, respectively, and a Screen-Well™ REDOX library containing the 84 compounds was treated at a concentration of 10 μM by for 48 hours.
(§2) Mfn1-KO MEFs were stably transfected with an Mfn1 promoter reporter construct (Genecopoeia) cells of mouse and human were produced using Mfn1−/− MEFs and 293T cells (human embryonic renal cells) and then treated with the Screen-Well™ REDOX library, containing 84 compounds, for 48 hours in a concentration of 10 nM to 10 μM. Mfn1 promoter activity was measured in the culture supernatants with the Secrete-Pair™ Dual Luminescence and Gaussia Luciferase Assay Kits (Genecopoeia) using a SpectraMax microplate reader.

MEFs [1] = test: Reprogramming of MEFs by OSKM transduction, AP staining; format: cell-based, mouse
mouse Mfn1 promoter = test: Mouse Mfn1 promoter reporter assay (luciferase), REDOX library screening; format: cell-based; settings: Mfn1−/− MEFs carrying Mfn1 promoter reporter, 10 μM, 48 hours
Experimental: as §1, §2

MEFs [2] = test: Mitochondrial morphology of reprogramming cultures (Mito-EYFP); format: cell-based, mouse; settings: OSKM, 50 μM Mdivi1, Mito-EYFP, D7
Experimental: Cells were fixed in 4% paraformaldehyde for 10 minutes at room temperature (RT) and then in MeOH for 15 minutes at −20° C., after which their permeability was increased with 0.3% Triton X-100 in PBS for 30 min and blocked with 4% BSA for 2 hours at RT. The samples were stained with the anti-Tom20 antibody diluted in a blocking buffer at 4° C. overnight. After washing, the cells were stained with Alexa 488-conjugated secondary antibodies (Invitrogen) for 45 minutes at RT. The nuclei were counterstained with 10 μg/ml DAPI. For live cell imaging, the cells were incubated with 200 nM MitoTracker® Red CMXRos (Invitrogen) for 30 minutes at 37° C. Florescent images were analyzed under an IX51 microscope (Olympus) or an Axiovert 200M microscope (Carl Zeiss).

Compound: CC1=C(C)C(=O)C(CC[C@](C)(O)CCC[C@H](C)CCC[C@H](C)CCCC(C)C)=C(C)C1=O [D-α-tocopheryl quinone]
human Mfn1 promoter activity (relative luciferase activity) (human Mfn1 promoter): down-regulated; also recorded: best inhibit

Compound: O=CC[C@@H](O)[C@H](O)[C@H](O)CO [2-DG, 2-deoxy-D-glucose]
cellular reprogramming (AP+ colonies) with glycolysis inhibitor (MEFs [1]; OSKM reprogramming of MEFs, D11): substantially decreased

mouse Mfn1 promoter activity (relative luciferase activity) (mouse Mfn1 promoter): top 2 upregulated
Compound: CN(C/C=C/C#CC(C)(C)C)Cc1cccc2ccccc12.Cl [erbinafine.HCl]

Compound: C[C@]12C=CC(=O)C=C1CC[C@@H]1C2=CC[C@]2(C)[C@@H](C(=O)CN3CCN(c4cc(N5CCCC5)nc(N5CCCC5)n4)CC3)CC[C@@H]12.O=C(O)/C=C\C(=O)O [U74389G maleate, 21-[4-(2,6-di-1-pyrrolidinyl-4-pyrimidinyl)-1-piperazinyl]pregna-1,4,9[11]-triene-3,20-dione maleate]
mouse Mfn1 promoter activity (relative luciferase activity) (mouse Mfn1 promoter; listed as 21-[4-(2,6-di-1-pyrrolidinyl-4-pyrimidinyl)-1-piperazinyl]pregna-1,4,9[11]-trien, maleate): top 3 downregulated
mouse Mfn1 promoter activity (relative luciferase activity) (mouse Mfn1 promoter; maleate): down-regulated; also recorded: inhibited
human Mfn1 promoter activity (relative luciferase activity) (human Mfn1 promoter; maleate): down-regulated; also recorded: best inhibit

Compound: CCCCCCCCCCCCCCCC(=O)OC/C=C(C)/C=C/C=C(C)/C=C/C1=C(C)CCCC1(C)C [retinyl palmitate]
human Mfn1 promoter activity (relative luciferase activity) (human Mfn1 promoter): down-regulated; also recorded: best inhibit

Compound: COc1cc(-n2c(=S)[nH]c3ccccc3c2=O)c(Cl)cc1Cl [Mdivi1]
fragmented mitochondrial morphology of Mfn1−/− and Mfn2−/− MEFs (MEFs [2]): blocked
higher reprogramming efficiency of Mfn1−/− and Mfn2−/− MEFs (MEFs [1]; OSKM, 50 μM Mdivi1, AP+ colonies D11): blocked

mouse Mfn1 promoter activity (relative luciferase activity) (mouse Mfn1 promoter): top 3 downregulated
mouse Mfn1 promoter activity (relative luciferase activity) (mouse Mfn1 promoter; listed as tetramethyl pyrazine): down-regulated
Compound: Cc1nc(C)c(C)nc1C [tetramethylpyrazine]

mouse Mfn1 promoter activity (relative luciferase activity) (mouse Mfn1 promoter): top 2 upregulated
Compound: Cc1coc2c1C(=O)C(=O)c1c-2ccc2c1CCCC2(C)C [Tanshinone IIA]
